Laboratory results from paper PMC10212518 (Biochemical Journal, 2023).

Tests used:
[1] = molecular target: T1, endogenous mouse RIPK1 in MDF cells (Mus musculus, UniProt Q60855); assay: Cellular Thermal Shift Assay (CETSA); format: binding; conditions: 20 µM
T1 construct: endogenous in cells; host or cells: wild-type mouse dermal fibroblasts (MDF)
T1 sequence (Q60855 1-656): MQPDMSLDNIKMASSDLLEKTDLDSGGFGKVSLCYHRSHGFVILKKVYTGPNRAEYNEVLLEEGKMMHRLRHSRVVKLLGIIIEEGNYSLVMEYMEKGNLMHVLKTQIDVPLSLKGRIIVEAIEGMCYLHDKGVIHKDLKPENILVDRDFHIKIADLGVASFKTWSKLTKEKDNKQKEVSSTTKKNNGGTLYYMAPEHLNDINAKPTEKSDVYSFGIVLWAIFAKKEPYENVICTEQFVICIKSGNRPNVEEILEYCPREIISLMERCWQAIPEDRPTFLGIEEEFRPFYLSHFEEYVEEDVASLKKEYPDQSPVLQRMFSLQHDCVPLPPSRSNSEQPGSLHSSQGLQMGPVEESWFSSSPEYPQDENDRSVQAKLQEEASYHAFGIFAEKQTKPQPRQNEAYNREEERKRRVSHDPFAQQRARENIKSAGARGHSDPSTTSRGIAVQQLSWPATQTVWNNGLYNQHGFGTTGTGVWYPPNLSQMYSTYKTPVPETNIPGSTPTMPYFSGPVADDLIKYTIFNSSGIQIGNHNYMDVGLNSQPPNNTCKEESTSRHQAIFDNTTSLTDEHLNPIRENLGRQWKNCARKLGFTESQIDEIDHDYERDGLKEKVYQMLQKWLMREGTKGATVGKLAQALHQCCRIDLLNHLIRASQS
Description: (§1) CETSA was performed as previously described. Briefly, Mlkl^−/− MDF cells were treated with doxycycline (20 ng/ml) for 4 h to induce expression of the MLKL Q343A mutant and then seeded to obtain 1.5 × 10^6 cells per temperature point. WT MDF or U937 cells were seeded to obtain 1.5 × 10^6 cells per temperature point. Cells were treated with DMSO or compounds (20 µM), as specified, for 1 h at 37°C 10% CO2. Cells were spun down, washed with 5 ml DPBS (Gibco), resuspended in DPBS containing cOmplete EDTA-free Protease Inhibitor Cocktail (Roche) and aliquoted into 100 µl samples per temperature point in PCR tubes. Live cell suspensions were heated across a temperature gradient (below) for 3 min in a T100 Thermal Cycler (Bio-Rad), cooled at room temperature for 3 min, snap frozen in liquid N2 and stored at −80°C overnight.
(§2) Samples were freeze-thawed once to lyse the cells. Soluble protein was separated from precipitated protein via centrifugation at 17 000×g for 30 min at 4°C. Soluble protein fractions were resolved by SDS–PAGE and analysed by Western blot. Briefly, 10 µl of each soluble protein sample was added to 10 µl of NuPAGE LDS Sample Buffer (Invitrogen) containing TCEP (Sigma–Aldrich). Samples were heated at 95°C for 10 min and then 15 µl of each sample was run on a gel along with the Precision Plus Kaleidoscope Prestained Protein Standard (Bio-Rad), using either NuPAGE 4–12% Bis-Tris 1.0 mm × 20-well Midi Gels (Invitrogen) with NuPAGE MES SDS Running Buffer (Invitrogen), or 4–15% Criterion TGX Stain-Free 26 well 15 µl Protein Gels (Bio-Rad) with Tris/Glycine Buffer (Bio-Rad). Western blots were performed according to the Western Blotting General Procedure above.

[2] = system: RIPK1 phosphorylation in MDF cells; assay: Cellular phosphorylation assay, Western blot of phospho-RIPK1; format: cell-based, mouse; conditions: 10 µM, 2 h pre-treatment; TSI 2 h; wild-type MDF cells
Description: (§3) WT, Ripk1^−/−Mlkl^−/− and Ripk3^−/− MDF cell lines were seeded at 3.0 × 10^5 cells in 1 ml per well in 12-well plates (Corning, cat #3512) and allowed to settle for 24 h at 37°C 10% CO2. WT cells were treated with DMSO alone or compounds (1 µM or 10 µM), as specified, for 2 h. Ripk1^−/−Mlkl^−/− and Ripk3^−/− cells were left untreated. Cells were stimulated with TSI to induce phosphorylation of RIPK1 and RIPK3, or left unstimulated, for 2 h. For all compounds and reagents, 1 µl of 1000× stocks were used. Cells were harvested, washed with 500 µl DPBS (Gibco) and lysed in 25 µl of ice-cold RIPA buffer (25 mM Tris–HCl pH 7.5, 150 mM NaCl, 1% v/v Nonidet P-40, 1% w/v Na Deoxycholate, 0.1% w/v SDS) containing cOmplete EDTA-free Protease Inhibitor Cocktail (Roche), PhosSTOP Phosphatase Inhibitor Cocktail (Roche) and benzonase nuclease (Sigma–Aldrich) for 30 min on ice. Whole cell lysates were stored at −80°C until protein quantification, SDS–PAGE and Western blots were performed. Briefly, whole cell lysates were thawed on ice then quantified using the BCA Protein Assay with bicinchoninic acid solution (Sigma–Aldrich) and copper sulfate solution (Sigma–Aldrich). NuPAGE LDS Sample Buffer (Invitrogen) containing TCEP (Sigma–Aldrich) was added to the whole cell lysates to obtain 20 µg protein in 20 µl total volume per sample. Samples were heated at 95°C for 10 minutes and 20 µl of each sample was run on NuPAGE 4–12% Bis-Tris 1.0 mm × 12-well Mini Gels (Invitrogen) using NuPAGE MES SDS Running Buffer (Invitrogen) along with the Precision Plus Kaleidoscope Prestained Protein Standard (Bio-Rad). Western blots were performed according to the Western Blotting General Procedure above.

wild-type MDF cells = assay: FACS cell death assay (PI uptake by flow cytometry) after necroptotic stimulus; format: cell-based, mouse; conditions: for inhibition of TSQ-induced necroptosis (PI uptake, flow cytometry): TSQ 24 h, control comparison at concentrations >1 µM; for inhibition of TSZ-induced necroptosis (PI uptake, flow cytometry): TSZ 24 h
Description: In the first protocol, WT MDF cells were seeded at 1.0 × 10^5 cells per well in 24-well plates and allowed to settle for 4 h at 37°C 10% CO2. […] After 24 h, cells were harvested, stained with 1 µg/ml propidium iodide (PI; Sigma–Aldrich) and PI positive cells were quantified by flow cytometry on a BD FACSCalibur instrument. In the second protocol, WT MDF cells were seeded at 5.0 × 10^4 cells in 500 µl per well in 24-well plates (Falcon, cat #353047) and allowed to settle for 24 h at 37°C 10% CO2. […] For all compounds and reagents, 0.5 µl of 1000× stocks were used. Cells were harvested, stained with 2 µg/ml propidium iodide (PI; Sigma–Aldrich) and PI positive cells were quantified by flow cytometry on a BD FACSCalibur instrument.

[3] = system: RIPK3 phosphorylation in MDF cells; assay: Cellular phosphorylation assay, Western blot of phospho-RIPK3; format: cell-based, mouse; conditions: 10 µM, 2 h pre-treatment; TSI 2 h; wild-type MDF cells
Description: as §3

[4] = molecular target: T2, endogenous mouse RIPK3 in MDF cells (Mus musculus, UniProt Q9QZL0); assay: Cellular Thermal Shift Assay (CETSA); format: binding; conditions: 20 µM
T2 construct: endogenous in cells; host or cells: wild-type mouse dermal fibroblasts (MDF)
T2 sequence (Q9QZL0 whole entry): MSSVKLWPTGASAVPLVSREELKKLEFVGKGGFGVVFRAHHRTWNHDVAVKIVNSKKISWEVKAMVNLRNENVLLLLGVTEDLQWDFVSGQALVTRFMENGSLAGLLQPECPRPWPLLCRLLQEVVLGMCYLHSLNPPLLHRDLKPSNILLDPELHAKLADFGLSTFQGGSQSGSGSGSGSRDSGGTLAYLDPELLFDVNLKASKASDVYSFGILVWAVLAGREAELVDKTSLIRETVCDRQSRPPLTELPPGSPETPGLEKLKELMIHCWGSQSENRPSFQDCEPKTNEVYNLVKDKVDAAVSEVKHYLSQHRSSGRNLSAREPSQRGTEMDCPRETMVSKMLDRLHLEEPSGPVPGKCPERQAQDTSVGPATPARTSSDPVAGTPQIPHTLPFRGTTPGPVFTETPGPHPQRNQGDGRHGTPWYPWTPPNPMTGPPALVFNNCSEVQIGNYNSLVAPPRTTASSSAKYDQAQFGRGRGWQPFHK
Description: as §1, §2

Compound	effect on thermal stability of endogenous mouse RIPK1 (CETSA) [1]	effect on RIPK1 phosphorylation (phospho-RIPK1 signal, Western blot) [2]	inhibition of TSQ-induced necroptosis (PI uptake, flow cytometry) (wild-type MDF cells)	inhibition of TSZ-induced necroptosis (PI uptake, flow cytometry) (wild-type MDF cells)	effect on RIPK3 phosphorylation (phospho-RIPK3 signal, Western blot) [3]	effect on thermal stability of endogenous mouse RIPK3 (CETSA) [4]
CN1C(=O)NC(Cc2c[nH]c3c(Cl)cccc23)C1=O (centres unmarked) [Nec-1s]	increased the thermal stability	almost completely ablated RIPK1 phosphorylation	–	–	–	–
CC(C)S(=O)(=O)c1ccc2nccc(Nc3ccc4scnc4c3)c2c1 [GSK′872]	–	–	protection was comparable	more potent protection with the control inhibitors compared with ABT-869	almost completely inhibited	had no effect on RIPK3 stability
Cc1cc(-c2cnc(N)c3c(-c4ccc5scnc5c4)csc23)n(C)n1 [GSK′843]	–	–	protection was comparable	more potent protection with the control inhibitors compared with ABT-869	–	–
